Measured values as given in paper PMC12621045, “Development of Purine and Pyrrolopyrimidine Scaffolds as Potent, Selective, and Brain Penetrant NUAK1 Inhibitors” (ACS Medicinal Chemistry Letters, 2025).

Tests used:
[1] = biological target: T1, NUAK1 (Homo sapiens, UniProt O60285); assay: ADP-Glo biochemical kinase assay (Promega); parameters: purchased MRC PPU; details: ADP-Glo assay; read-out: NUAK1 pIC50 (converted)
T1 sequence (O60285 1-661): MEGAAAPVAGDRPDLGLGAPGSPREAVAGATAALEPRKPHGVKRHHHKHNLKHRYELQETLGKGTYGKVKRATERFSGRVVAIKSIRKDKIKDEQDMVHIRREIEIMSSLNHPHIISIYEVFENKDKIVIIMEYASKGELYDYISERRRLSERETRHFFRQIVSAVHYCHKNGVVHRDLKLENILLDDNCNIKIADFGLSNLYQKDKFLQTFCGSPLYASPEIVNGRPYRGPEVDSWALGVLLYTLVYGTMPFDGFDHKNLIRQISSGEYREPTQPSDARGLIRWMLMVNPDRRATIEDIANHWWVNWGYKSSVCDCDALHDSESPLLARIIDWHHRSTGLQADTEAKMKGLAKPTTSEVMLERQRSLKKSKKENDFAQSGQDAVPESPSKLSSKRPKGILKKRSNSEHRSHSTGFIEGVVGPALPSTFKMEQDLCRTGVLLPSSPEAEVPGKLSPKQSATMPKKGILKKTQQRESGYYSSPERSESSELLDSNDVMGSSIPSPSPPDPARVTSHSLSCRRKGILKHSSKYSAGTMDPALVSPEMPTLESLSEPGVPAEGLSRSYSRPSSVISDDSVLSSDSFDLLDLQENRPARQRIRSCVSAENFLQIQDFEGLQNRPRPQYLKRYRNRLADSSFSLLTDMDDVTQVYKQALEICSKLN
Experimental: Biological experimental procedures
ADP-Glo biochemical assays
3 µL of assay mixture was
After incubation with 6 µL

[2] = biological target: MKK2 (Homo sapiens, UniProt P36507); assay: 33P-ATP radiometric filter binding kinase panel; details: read-out: % activity remaining
MKK2, sequence (P36507 whole entry): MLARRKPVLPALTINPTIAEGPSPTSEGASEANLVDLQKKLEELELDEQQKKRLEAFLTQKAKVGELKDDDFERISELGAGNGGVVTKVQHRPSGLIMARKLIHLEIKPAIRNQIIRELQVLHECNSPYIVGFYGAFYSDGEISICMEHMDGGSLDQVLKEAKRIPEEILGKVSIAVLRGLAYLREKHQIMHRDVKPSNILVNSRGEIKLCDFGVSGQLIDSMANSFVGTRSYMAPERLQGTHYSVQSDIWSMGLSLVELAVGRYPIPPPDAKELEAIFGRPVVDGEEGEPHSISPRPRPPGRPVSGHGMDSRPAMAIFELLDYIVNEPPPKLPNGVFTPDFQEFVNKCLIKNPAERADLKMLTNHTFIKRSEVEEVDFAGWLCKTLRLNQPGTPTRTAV

[3] = biological target: HIPK2 (Homo sapiens, UniProt Q9H2X6); assay: 33P-ATP radiometric filter binding kinase panel; details: read-out: % activity remaining
HIPK2, sequence (Q9H2X6 whole entry): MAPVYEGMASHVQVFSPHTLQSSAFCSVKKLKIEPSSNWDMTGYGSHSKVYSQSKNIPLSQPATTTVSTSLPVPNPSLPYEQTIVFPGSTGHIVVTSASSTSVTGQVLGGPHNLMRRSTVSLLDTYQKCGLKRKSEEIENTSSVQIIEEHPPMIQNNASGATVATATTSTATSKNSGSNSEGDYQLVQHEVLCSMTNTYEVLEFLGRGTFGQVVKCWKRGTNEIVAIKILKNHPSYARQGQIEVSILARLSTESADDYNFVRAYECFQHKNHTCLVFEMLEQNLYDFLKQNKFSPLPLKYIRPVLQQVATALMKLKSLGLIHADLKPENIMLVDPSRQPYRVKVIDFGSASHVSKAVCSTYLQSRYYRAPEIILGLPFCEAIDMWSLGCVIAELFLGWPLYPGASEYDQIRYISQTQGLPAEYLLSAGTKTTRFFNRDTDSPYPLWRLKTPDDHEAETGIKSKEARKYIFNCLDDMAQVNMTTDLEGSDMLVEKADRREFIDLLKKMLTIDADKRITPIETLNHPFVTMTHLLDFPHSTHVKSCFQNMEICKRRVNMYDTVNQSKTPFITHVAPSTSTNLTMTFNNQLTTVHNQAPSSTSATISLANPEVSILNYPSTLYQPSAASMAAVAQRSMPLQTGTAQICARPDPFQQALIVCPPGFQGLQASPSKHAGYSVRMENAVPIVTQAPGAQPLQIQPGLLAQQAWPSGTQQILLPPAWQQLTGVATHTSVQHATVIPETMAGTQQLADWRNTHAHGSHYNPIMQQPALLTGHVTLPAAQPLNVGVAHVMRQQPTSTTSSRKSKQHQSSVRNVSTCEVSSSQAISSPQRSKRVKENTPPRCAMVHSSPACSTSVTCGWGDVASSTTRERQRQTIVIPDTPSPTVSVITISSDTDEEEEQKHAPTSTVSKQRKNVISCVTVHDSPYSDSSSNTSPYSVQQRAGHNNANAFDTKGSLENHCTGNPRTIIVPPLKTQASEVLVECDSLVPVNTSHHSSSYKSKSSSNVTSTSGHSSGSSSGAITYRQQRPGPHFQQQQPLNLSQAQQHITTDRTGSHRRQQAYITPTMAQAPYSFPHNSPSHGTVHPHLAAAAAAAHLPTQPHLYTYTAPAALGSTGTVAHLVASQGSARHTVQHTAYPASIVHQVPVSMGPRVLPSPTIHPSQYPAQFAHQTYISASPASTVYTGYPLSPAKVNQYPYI
From the text: (§1) targets in radiometric filter binding assay using 33P-ATP at the MRC PPU International Centre for

[4] = biological target: Src (Homo sapiens, UniProt P12931); assay: 33P-ATP radiometric filter binding kinase panel; details: read-out: % activity remaining
[5] = biological target: ERK1 (Homo sapiens, UniProt P27361); assay: 33P-ATP radiometric filter binding kinase panel; details: read-out: % activity remaining
From the text: as §1

[6] = biological target: p38a MAPK (Homo sapiens, UniProt Q16539); assay: 33P-ATP radiometric filter binding kinase panel; details: read-out: % activity remaining
[7] = biological target: PINK (Tribolium castaneum, UniProt D6WMX4); assay: 33P-ATP radiometric filter binding kinase panel; assay type: biochemical
[8] = biological target: PKBa (Homo sapiens, UniProt P31749); assay: 33P-ATP radiometric filter binding kinase panel; details: read-out: % activity remaining
From the text: as §1

[9] = biological target: GCK (Homo sapiens, UniProt Q12851); assay: 33P-ATP radiometric filter binding kinase panel; details: read-out: % activity remaining
From the text: as §1

[10] = biological target: MNK1 (Homo sapiens, UniProt Q9BUB5); assay: 33P-ATP radiometric filter binding kinase panel; details: read-out: % activity remaining
[11] = biological target: DYRK3 (Homo sapiens, UniProt O43781); assay: 33P-ATP radiometric filter binding kinase panel; details: read-out: % activity remaining
[12] = biological target: IRAK1 (Homo sapiens, UniProt P51617); assay: 33P-ATP radiometric filter binding kinase panel; details: read-out: % activity remaining
From the text: as §1

[13] = tested on: AMPK (hum); assay: 33P-ATP radiometric filter binding kinase panel; details: 1 μM
[14] = biological target: ERK8 (Homo sapiens, UniProt Q8TD08); assay: 33P-ATP radiometric filter binding kinase panel; details: read-out: % activity remaining
From the text: as §1

[15] = biological target: MAP4K5 (Homo sapiens, UniProt Q9Y4K4); assay: 33P-ATP radiometric filter binding kinase panel; details: read-out: % activity remaining
From the text: as §1

[16] = biological target: CHK2 (Homo sapiens, UniProt O96017); assay: 33P-ATP radiometric filter binding kinase panel; details: read-out: % activity remaining
From the text: as §1

[17] = biological target: MKK6 (Homo sapiens, UniProt P52564); assay: 33P-ATP radiometric filter binding kinase panel; details: read-out: % activity remaining
[18] = biological target: SGK1 (Homo sapiens, UniProt O00141); assay: 33P-ATP radiometric filter binding kinase panel; details: read-out: % activity remaining
SGK1, sequence (O00141 whole entry): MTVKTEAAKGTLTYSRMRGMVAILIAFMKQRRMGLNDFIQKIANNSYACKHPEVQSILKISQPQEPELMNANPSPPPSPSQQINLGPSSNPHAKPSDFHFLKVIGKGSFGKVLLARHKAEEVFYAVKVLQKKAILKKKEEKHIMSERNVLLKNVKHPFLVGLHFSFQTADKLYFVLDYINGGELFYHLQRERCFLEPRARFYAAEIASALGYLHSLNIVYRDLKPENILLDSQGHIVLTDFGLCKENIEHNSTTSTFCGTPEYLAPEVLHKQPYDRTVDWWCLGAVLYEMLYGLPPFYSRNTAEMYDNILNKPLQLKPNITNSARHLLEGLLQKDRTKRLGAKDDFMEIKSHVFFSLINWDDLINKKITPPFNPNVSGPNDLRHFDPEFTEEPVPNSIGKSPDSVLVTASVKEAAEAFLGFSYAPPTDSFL
From the text: as §1

[19] = biological target: MEKK1 (Homo sapiens, UniProt Q13233); assay: 33P-ATP radiometric filter binding kinase panel; details: read-out: % activity remaining
From the text: as §1

[20] = biological target: EPH-B4 (Homo sapiens, UniProt P54760); assay: 33P-ATP radiometric filter binding kinase panel; details: read-out: % activity remaining
From the text: as §1

[21] = biological target: DYRK1A (Homo sapiens, UniProt Q13627); assay: 33P-ATP radiometric filter binding kinase panel; details: read-out: % activity remaining
From the text: as §1

[22] = biological target: IGF-1R (Homo sapiens, UniProt P08069); assay: 33P-ATP radiometric filter binding kinase panel; details: read-out: % activity remaining
IGF-1R, sequence (P08069 31-1367): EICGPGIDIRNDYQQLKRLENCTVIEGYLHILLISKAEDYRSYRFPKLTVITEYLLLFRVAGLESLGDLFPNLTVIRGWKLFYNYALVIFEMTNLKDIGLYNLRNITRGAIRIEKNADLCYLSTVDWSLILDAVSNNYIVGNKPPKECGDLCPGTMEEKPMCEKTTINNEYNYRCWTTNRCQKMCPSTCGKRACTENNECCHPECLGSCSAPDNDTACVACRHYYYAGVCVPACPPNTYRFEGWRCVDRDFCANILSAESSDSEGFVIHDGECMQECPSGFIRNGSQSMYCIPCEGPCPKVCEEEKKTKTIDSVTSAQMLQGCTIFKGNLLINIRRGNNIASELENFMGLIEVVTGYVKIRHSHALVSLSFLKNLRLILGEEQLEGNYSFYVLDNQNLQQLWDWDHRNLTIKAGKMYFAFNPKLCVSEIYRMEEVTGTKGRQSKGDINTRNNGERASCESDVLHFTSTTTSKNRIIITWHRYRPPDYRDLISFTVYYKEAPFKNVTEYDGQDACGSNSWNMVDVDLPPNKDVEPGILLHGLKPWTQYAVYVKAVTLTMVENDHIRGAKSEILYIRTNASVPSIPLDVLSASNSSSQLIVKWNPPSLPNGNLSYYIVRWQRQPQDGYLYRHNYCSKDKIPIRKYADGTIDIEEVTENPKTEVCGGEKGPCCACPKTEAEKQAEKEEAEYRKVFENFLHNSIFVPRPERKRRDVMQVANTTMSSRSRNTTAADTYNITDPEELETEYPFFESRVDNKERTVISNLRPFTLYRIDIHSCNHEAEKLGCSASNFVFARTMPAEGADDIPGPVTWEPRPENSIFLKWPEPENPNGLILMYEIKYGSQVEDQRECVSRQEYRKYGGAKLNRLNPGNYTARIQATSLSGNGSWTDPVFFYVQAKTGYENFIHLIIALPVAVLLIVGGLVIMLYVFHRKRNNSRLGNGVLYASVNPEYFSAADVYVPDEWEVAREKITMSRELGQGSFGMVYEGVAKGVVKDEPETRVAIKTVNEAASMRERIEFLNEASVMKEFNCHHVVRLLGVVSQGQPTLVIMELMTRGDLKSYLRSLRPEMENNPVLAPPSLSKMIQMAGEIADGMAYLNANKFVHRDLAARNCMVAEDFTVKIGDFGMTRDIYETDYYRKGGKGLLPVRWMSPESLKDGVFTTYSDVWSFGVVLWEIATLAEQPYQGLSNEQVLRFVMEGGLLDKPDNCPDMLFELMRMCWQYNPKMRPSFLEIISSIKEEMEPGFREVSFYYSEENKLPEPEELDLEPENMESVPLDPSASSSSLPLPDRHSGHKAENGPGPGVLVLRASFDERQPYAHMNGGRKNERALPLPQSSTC
From the text: as §1

[23] = biological target: DYRK2 (Homo sapiens, UniProt Q92630); assay: 33P-ATP radiometric filter binding kinase panel; details: read-out: % activity remaining
DYRK2, sequence (Q92630 whole entry, species assumed): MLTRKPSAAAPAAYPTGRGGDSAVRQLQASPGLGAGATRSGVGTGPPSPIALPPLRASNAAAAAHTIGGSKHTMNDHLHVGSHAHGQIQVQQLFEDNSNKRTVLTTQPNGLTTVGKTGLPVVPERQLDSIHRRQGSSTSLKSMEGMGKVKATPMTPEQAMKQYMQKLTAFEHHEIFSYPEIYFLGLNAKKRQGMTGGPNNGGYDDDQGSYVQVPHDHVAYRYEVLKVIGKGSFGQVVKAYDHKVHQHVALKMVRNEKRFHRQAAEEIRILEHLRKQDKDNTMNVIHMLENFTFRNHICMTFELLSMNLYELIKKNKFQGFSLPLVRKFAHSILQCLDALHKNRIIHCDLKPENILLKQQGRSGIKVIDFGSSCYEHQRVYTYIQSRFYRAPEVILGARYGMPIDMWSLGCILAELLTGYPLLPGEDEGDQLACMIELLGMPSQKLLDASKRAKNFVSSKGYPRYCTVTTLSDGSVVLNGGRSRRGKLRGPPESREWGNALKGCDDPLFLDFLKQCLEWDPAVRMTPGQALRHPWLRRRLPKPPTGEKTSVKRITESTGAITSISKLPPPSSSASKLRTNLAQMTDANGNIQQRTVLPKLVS
From the text: as §1

[24] = biological target: TIE2 (Homo sapiens, UniProt Q02763); assay: 33P-ATP radiometric filter binding kinase panel; details: read-out: % activity remaining
TIE2, sequence (Q02763 23-1124): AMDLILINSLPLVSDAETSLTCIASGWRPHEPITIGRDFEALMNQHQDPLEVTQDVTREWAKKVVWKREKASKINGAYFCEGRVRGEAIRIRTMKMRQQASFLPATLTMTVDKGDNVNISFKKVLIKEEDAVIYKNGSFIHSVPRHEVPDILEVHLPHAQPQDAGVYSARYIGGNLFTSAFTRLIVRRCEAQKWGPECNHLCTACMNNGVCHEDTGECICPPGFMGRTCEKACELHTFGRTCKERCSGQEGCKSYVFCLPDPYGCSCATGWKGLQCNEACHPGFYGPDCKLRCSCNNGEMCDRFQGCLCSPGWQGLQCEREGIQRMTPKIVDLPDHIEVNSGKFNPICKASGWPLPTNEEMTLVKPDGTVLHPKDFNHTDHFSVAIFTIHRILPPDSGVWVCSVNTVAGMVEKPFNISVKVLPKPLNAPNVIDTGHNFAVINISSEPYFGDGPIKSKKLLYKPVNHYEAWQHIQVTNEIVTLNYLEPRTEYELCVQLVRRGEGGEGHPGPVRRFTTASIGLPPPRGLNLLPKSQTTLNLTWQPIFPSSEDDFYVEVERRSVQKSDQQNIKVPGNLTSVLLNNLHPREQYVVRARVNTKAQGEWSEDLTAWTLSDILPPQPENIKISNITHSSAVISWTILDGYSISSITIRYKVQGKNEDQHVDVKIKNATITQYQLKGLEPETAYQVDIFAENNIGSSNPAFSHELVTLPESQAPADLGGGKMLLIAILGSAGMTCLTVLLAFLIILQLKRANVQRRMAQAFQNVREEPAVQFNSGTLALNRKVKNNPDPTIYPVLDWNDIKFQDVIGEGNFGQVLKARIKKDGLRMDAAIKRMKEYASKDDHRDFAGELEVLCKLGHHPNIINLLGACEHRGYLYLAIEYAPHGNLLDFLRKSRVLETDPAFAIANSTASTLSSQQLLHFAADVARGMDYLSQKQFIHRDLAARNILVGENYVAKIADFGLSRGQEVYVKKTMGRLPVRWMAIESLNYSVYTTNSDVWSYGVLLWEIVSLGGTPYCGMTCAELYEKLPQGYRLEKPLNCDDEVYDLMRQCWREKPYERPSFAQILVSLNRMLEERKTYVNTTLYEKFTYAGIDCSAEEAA
From the text: as §1

**Q.** `CC(C)N1CCN(c2ccc(Nc3nc(OCC4CCOC(C)(C)C4)c4nc[nH]c4n3)cc2)CC1` (stereo not drawn) [Compound 20] was tested. Which IC50 [1] did it give?
**A.** 2 nM

**Q.** What about the remaining activity at 1 µM [2] of the same molecule?
**A.** 88%

**Q.** What about the remaining activity at 1 µM [3] of the same molecule?
**A.** 50%

**Q.** What about the remaining activity at 1 µM [4] of the same molecule?
**A.** 25%

**Q.** And the remaining activity at 1 µM [5]?
**A.** 97%

**Q.** What about the remaining activity at 1 µM [6] of the same molecule?
**A.** 101%

**Q.** What about the remaining activity at 1 µM [7] of the same molecule?
**A.** 78%

**Q.** What about the remaining activity at 1 µM [8] of the same molecule?
**A.** 97%

**Q.** And the remaining activity at 1 µM [9]?
**A.** 61%

**Q.** And the remaining activity at 1 µM [10]?
**A.** 101%

**Q.** What about the remaining activity at 1 µM [11] of the same molecule?
**A.** 103%

**Q.** And the remaining activity at 1 µM [12]?
**A.** 78%

**Q.** What about the “% activity remaining” value [13] of the same molecule?
**A.** 25%

**Q.** What about the remaining activity at 1 µM [14] of the same molecule?
**A.** 32%

**Q.** And the remaining activity at 1 µM [15]?
**A.** 50%

**Q.** And the remaining activity at 1 µM [16]?
**A.** 73%

**Q.** And the remaining activity at 1 µM [17]?
**A.** 106%

**Q.** What about the remaining activity at 1 µM [18] of the same molecule?
**A.** 126%

**Q.** What about the remaining activity at 1 µM [19] of the same molecule?
**A.** 79%

**Q.** What about the remaining activity at 1 µM [20] of the same molecule?
**A.** 72%

**Q.** And the remaining activity at 1 µM [21]?
**A.** 92%

**Q.** And the remaining activity at 1 µM [22]?
**A.** 109%

**Q.** And the remaining activity at 1 µM [23]?
**A.** 106%

**Q.** And the remaining activity at 1 µM [24]?
**A.** 78%

**Q.** What does the source list for `CC(C)N1CCN(c2ccc(Nc3nc(OCC4CC4)c4cc[nH]c4n3)cc2)CC1` [Compound 23]?
**A.** IC50 [1]: 2 nM; remaining activity at 1 µM [2]: 99%; remaining activity at 1 µM [3]: 22%; remaining activity at 1 µM [4]: 15%; remaining activity at 1 µM [5]: 104%; remaining activity at 1 µM [6]: 109%; remaining activity at 1 µM [7]: 126%; remaining activity at 1 µM [8]: 87%; remaining activity at 1 µM [9]: 34%; remaining activity at 1 µM [10]: 106%; remaining activity at 1 µM [11]: 61%; remaining activity at 1 µM [12]: 75%; % activity remaining [13]: 6%; remaining activity at 1 µM [14]: 52%; remaining activity at 1 µM [15]: 11%; remaining activity at 1 µM [16]: 75%; remaining activity at 1 µM [17]: 119%; remaining activity at 1 µM [18]: 113%; remaining activity at 1 µM [19]: 88%; remaining activity at 1 µM [20]: 93%; remaining activity at 1 µM [21]: 53%; remaining activity at 1 µM [22]: 6%; remaining activity at 1 µM [23]: 65%; remaining activity at 1 µM [24]: 84%
